Test results as given in patent US7897582B2, “Oligonucleotide compositions and methods for the modulation of the expression of B7 protein” (Isis Pharmaceuticals, Inc., priority 2003, dated 2011).
Strand notation (5' to 3'): a small letter for the sugar, then the base; units joined by * are phosphorothioate-linked, units joined directly phosphodiester-linked; [ ] holds rarer units or linkages, { } end groups; capitals alone tell only the bases. e = 2'-O-(2-methoxyethyl) (MOE); [5mC] = 5-methylcytosine; d = 2'-deoxy (DNA)

Experiments:
[1] = test system: Human B7-2 mRNA; assay: Human B7-2 mRNA expression in electroporated THP-1 cells induced with LPS and dibutyryl cAMP; assay type: cell-based; settings: THP-1 cells electroporated at 10 micromolar oligonucleotide, LPS and dibutyryl cAMP (500 μM) 16 hours
Description: The human promonocytic leukaemia cell line, THP-1 (American Type Culture Collection, Manassas, Va.) was maintained in RPMI 1640 growth media supplemented with 10% fetal calf serum (FCS; Life Technologies, Rockville, Md.). A total of 1×10^7 cells were electroporated at an oligonucleotide concentration of 10 micromolar in 2 mm cuvettes, using an Electrocell Manipulator 600 instrument (Biotechnologies and Experimental Research, Inc.) employing 200 V, 1000 μF. Electroporated cells were then transferred to petri dishes and allowed to recover for 16 hrs Cells were then induced with LPS and dibutyryl cAMP (500 μM) for 16 hours. RNA was isolated and processed as described in previous examples.

[2] = test system: human B7-2; assay: Cell surface expression of B7-2 in transfected COS-7 cells by flow cytometry; assay type: cell-based; parameters: % Control Protein: concentration or dose not given beside the values; settings: for % Control Protein: hB7-2 protein, flow cytometry, Table 5
Experimental: A T-175 flask was seeded at 75% confluency with COS-7 cells (ATCC accession No. CRL 1651). The plasmid pcB7-1 was introduced into cells by standard calcium phosphate transfection. Following a 4 hour transfection, the cells were trypsinized and seeded in 12-well dishes at 80% confluency. The cells were allowed to adhere to the plastic for 1 hour and were then washed with phosphate-buffered saline (PBS). OptiMEM™ (GIBCO-BRL, Gaithersburg, Md.) medium was added along with 15 μg/mL of Lipofectin™ (GIBCO-BRL, Gaithersburg, Md.) and oligonucleotide at the indicated concentrations. After four additional hours, the cells were washed with phosphate buffered saline (PBS) and incubated with fresh oligonucleotide at the same concentration in DMEM (Dulbecco et al., Virol., 1959, 8, 396; Smith et al., Virol., 1960, 12, 185) with 10% fetal calf sera (FCS).
In order to monitor the effects of oligonucleotides on cell surface expression of B7-1, treated COS-7 cells were harvested by brief trypsinization 24-48 hours after oligonucleotide treatment. The cells were washed with PBS, then resuspended in 100 μL of staining buffer (PBS, 0.2% BSA, 0.1% azide) with 5 μL conjugated anti-B7-1-antibody (i.e., anti-hCD80-FITC, Ancell, Bayport, Minn.; FITC: fluorescein isothiocyanate). The cells were stained for 30 minutes at 4° C., washed with PBS, resuspended in 300 μL containing 0.5% paraformaldehyde. Cells were harvested and the fluorescence profiles were determined using a flow cytometer.
In an initial screen, the ability of hB7-2 oligonucleotides to inhibit B7-2 expression was evaluated by measuring the cell surface expression of B7-2 in transfected COS-7 cells by flow cytometry. The methods used were similar to those given in Example 2, with the exceptions that (1) COS-7 cells were transfected with the plasmids pbcB7-2 or BBG-58, a human ICAM-1 (CD54) expression vector (R&D Systems, Minneapolis, Minn.) introduced into cells by standard calcium phosphate transfection, (2) the oligonucleotides used were those described in Table 2, and (3) a conjugated anti-B7-2 antibody (i.e., anti-hCD86-FITC or anti-CD86-PE, PharMingen, San Diego, Calif.; PE: phycoerythrin) was used during flow cytometry.
B7 antisense oligonucleotides were tested for their effect on cell surface expression of both B7-1 and B7-2. Cell surface expression was measured as described in Example 1. Experiments were done for both human B7 and mouse B7.
The oligonucleotides were screened as described in Example 2 except that the concentration of oligonucleotide was varied as shown in Table 19.

[3] = test system: hB7-2 mRNA; assay: Ribonuclease protection assay of hB7-2 mRNA in transfected COS-7 cells; assay type: cell-based, human; parameters: % Control RNA Expression: concentration or dose not given beside the values; settings: for % Control RNA Expression: hB7-2 mRNA, Table 5
Experimental: For ribonuclease protection assays, cells were harvested 18 hours after completion of oligonucleotide treatment using a Totally RNA™ kit (Ambion, Austin, Tex.). The probes for the assay were generated from plasmids pcB7-2 (linearized by digestion with Bgl II) and pTRI-b-actin (Ambion Inc., Austin, Tex.). In vitro transcription of the linearized plasmid from the SP6 promoter was performed in the presence of α-^32P-UTP (800 Ci/mmole) yielding an antisense RNA complementary to the 3′ end of B7-2 (position 1044-1391). The probe was gel-purified after treatment with DNase I to remove DNA template. Ribonuclease protection assays were carried out using an RPA II™ kit (Ambion) according to the manufacturer's directions. Total RNA (5 μg) was hybridized overnight, at 42° C., with 10^5 cpm of the B7-2 probe or a control beta-actin probe. The hybridization reaction was then treated, at 37° C. for 30 minutes, with 0.4 units of RNase A and 2 units of RNase T1. Protected RNA was precipitated, resuspended in 10 μL of gel loading buffer and electrophoresed on a 6% acrylamide gel with 50% w/v urea at 20 W. The gel was then exposed and the lanes quantitated using a PhosphorImager (Molecular Dynamics, Sunnyvale, Calif.) essentially according to the manufacturer's instructions.
The oligonucleotides were screened as described in Example 4 except that the concentration of oligonucleotide was varied as shown in Table 13. Mismatch control oligonucleotides were included.

Row | Substance | % mRNA EXPRESSION [1] [%] | % mRNA INHIBITION [1] [%] | % Control Protein [2] [%] | % Control RNA Expression [3] [%] | further results
1 | 113138 (antisense eG*eA*eA*eT*e[5mC]*dT*dT*d[5mC]*dA*dG*dA*dG*dG*dA*dG*e[5mC]*eA*eG*e[5mC]*eA) [compound 113138] | 12 | 88 |  |  | 
2 | 113150 (antisense eA*e[5mC]*eA*eA*eG*d[5mC]*dT*dG*dA*dT*dG*dG*dA*dA*dA*e[5mC]*eG*eT*e[5mC]*eG) [compound 113150] | 19 | 81 |  |  | 
3 | 10367 (antisense dG*dC*dA*dC*dA*dG*dC*dA*dG*dC*dA*dT*dT*dC*dC*dC*dA*dA*dG*dG) [compound 10367] |  |  | 71.3 | 52.5 | 
4 | 113155 (antisense eG*eG*eG*e[5mC]*eT*dT*d[5mC]*dA*dT*d[5mC]*dA*dG*dA*dT*d[5mC]*eT*eT*eT*e[5mC]*eA) [compound 113155] | 13 | 87 |  |  | 
5 | 113131 (antisense e[5mC]*eG*eT*eG*eT*dG*dT*d[5mC]*dT*dG*dT*dG*d[5mC]*dT*dA*eG*eT*e[5mC]*e[5mC]*e[5mC]) [compound 113131] | 13 | 87 |  |  | 
6 | 10368 (antisense dT*dT*dG*dC*dA*dA*dA*dT*dT*dG*dG*dC*dA*dT*dG*dG*dC*dA*dG*dG) [compound 10368] |  |  | 81.0 | 84.5 | 
7 | 9137 (antisense dG*dG*dA*dA*dC*dA*dC*dA*dG*dA*dA*dG*dC*dA*dA*dG*dG*dT*dG*dG*dT) [compound 9137] |  |  | 80.5 | 78.1 | 
8 | 113142 (antisense eG*e[5mC]*eT*e[5mC]*eA*d[5mC]*dT*d[5mC]*dA*dG*dG*d[5mC]*dT*dT*dT*eG*eG*eT*eT*eT) [compound 113142] | 35 | 65 |  |  | 
9 | 10371 (antisense dG*dG*dG*dA*dG*dT*dC*dC*dT*dG*dG*dA*dG*dC*dC*dC*dC*dC*dT*dT) [compound 10371] |  |  | 97.3 | 92.9 | 
10 | 113153 (antisense e[5mC]*eG*e[5mC]*eG*eT*d[5mC]*dT*dT*dG*dT*d[5mC]*dA*dG*dT*dT*eT*e[5mC]*e[5mC]*eA*eG) [compound 113153] | 19 | 81 |  |  | 
11 | 10369 (antisense dT*dG*dG*dT*dA*dT*dG*dG*dG*dC*dT*dT*dT*dA*dC*dT*dC*dT*dT*dT) [compound 10369] |  |  | 71.3 | 81.5 | 
12 | 113145 (antisense eT*eG*eT*eG*eG*dG*d[5mC]*dT*dT*dT*dT*dT*dG*dT*dG*eA*eT*eG*eG*eA) [compound 113145] | 46 | 54 |  |  | 
13 | 113160 (antisense e[5mC]*e[5mC]*e[5mC]*eA*eT*dA*dA*dG*dT*dG*dT*dG*d[5mC]*dT*d[5mC]*eT*eG*eA*eA*eG) [compound 113160] | 09 | 91 |  |  | 
14 | 9138 (antisense dC*dC*dG*dT*dA*dC*dC*dT*dC*dC*dT*dA*dA*dG*dG*dC*dT*dC*dC*dT) [compound 9138] |  |  | 86.4 | 65.9 | 
15 | 10373 (antisense dT*dG*dC*dG*dA*dG*dC*dT*dC*dC*dC*dC*dG*dT*dA*dC*dC*dT*dC*dC) [compound 10373] |  |  | 43.5 | 32.7 | % mRNA EXPRESSION ([3]; human B7-2 mRNA, Table 12): 24%; % mRNA INHIBITION ([3]; human B7-2 mRNA, Table 12): 76%
16 | 113149 (antisense eT*e[5mC]*eA*eT*e[5mC]*dT*dT*d[5mC]*dT*dT*dA*dG*dG*dT*dT*e[5mC]*eT*eG*eG*eG) [compound 113149] | 29 | 71 |  |  | 
17 | 113154 (antisense e[5mC]*eA*eG*e[5mC]*eT*dG*dT*dA*dA*dT*d[5mC]*d[5mC]*dA*dA*dG*eG*eA*eA*eT*eG) [compound 113154] | 63 | 37 |  |  | 
18 | 113156 (antisense e[5mC]*eA*eT*eG*eT*dA*dT*d[5mC]*dA*d[5mC]*dT*dT*dT*dT*dG*eT*e[5mC]*eG*e[5mC]*eA) [compound 113156] | 83 | 17 |  |  | 
19 | 113140 (antisense eG*e[5mC]*eT*eT*eT*dG*dG*dT*dT*dT*dT*dG*dA*dG*dA*eG*eT*eT*eT*eG) [compound 113140] | 214 |  |  |  | 
20 | 113157 (antisense eA*eG*e[5mC]*e[5mC]*e[5mC]*d[5mC]*d[5mC]*dT*dT*dA*dT*dT*dA*d[5mC]*dT*e[5mC]*eA*eT*eG*eG) [compound 113157] | 13 | 87 |  |  | 
21 | 9134 (antisense dC*dA*dT*dA*dA*dG*dG*dT*dG*dT*dG*dC*dT*dC*dT*dG*dA*dA*dG*dT*dG) [compound 9134] |  |  | 88.8 | 94.5 | 
22 | 10370 (antisense dA*dA*dA*dA*dG*dG*dT*dT*dG*dC*dC*dC*dA*dG*dG*dA*dA*dC*dG*dG) [compound 10370] |  |  | 84.3 | 83.2 | 
23 | 9136 (antisense dA*dT*dT*dA*dA*dA*dA*dA*dC*dA*dT*dG*dT*dA*dT*dC*dA*dC*dT*dT) [compound 9136] |  |  | 97.1 | 103.1 | 
24 | ISIS 11539: fully 2′MO # 10996; SEQ ID NO: 90 (antisense GCGAGCTCCCCGTAC; all 2'-O-methyl, all phosphorothioate, T or U not given here) |  |  |  |  | B7-2 expression relative to untreated cells ([2]; 200 nM, protein expression assay, ISIS 10996 and 2′-O-methyl derivatives): not active at all
25 | 9135 (antisense dT*dT*dA*dC*dT*dC*dA*dT*dG*dG*dT*dA*dA*dT*dG*dT*dC*dT*dT*dT) [compound 9135] |  |  | 98.2 | 83.4 | 
26 | 9139 (antisense dC*dC*dC*dA*dT*dA*dG*dT*dG*dC*dT*dG*dT*dC*dA*dC*dA*dA*dA*dT) [compound 9139] |  |  | 47.9 | 32.6 | 
27 | ISIS 10715: scrambled control of # 9133; SEQ ID NO: 76 (antisense dG*dA*dT*dT*dT*dA*dA*dC*dA*dT*dT*dT*dG*dG*dC*dG*dC*dC*dC*dA) [reference compound] |  |  |  |  | inhibitory activity on B7-2 cell surface expression ([2]; 200 nM, FIG. 3): no inhibitory activity
28 | 10372 (antisense dC*dC*dA*dT*dT*dA*dA*dG*dC*dT*dG*dG*dG*dC*dT*dT*dG*dG*dC*dC) [compound 10372] |  |  | 101.7 | 82.5 | 
29 | 9133 (antisense dT*dT*dC*dC*dA*dG*dG*dT*dC*dA*dT*dG*dA*dG*dC*dC*dA*dT*dT*dA) [compound 9133] |  |  | 70.2 | 46.0 | 
